What was measured:
[1] = test system: 5-HT uptake; assay: Test 173: potentiation of 5-HTP (5-hydroxytryptophane) induced hypermotility in mice (inhibition of 5HT uptake, or 5HT potentiation, test); assay type: in vivo, mice (female, NMRI strain); settings: for ED50: Mus musculus, sc, read-out: Test 173 (dose increasing the activity to double the activity found with controls receiving 5-HTP alone; ED50), s.c., 5-HTP 150 mg/kg i.p., motility 45-75 min after 5-HTP, water-soluble salt; for FG 8033 is better by: 5-HT Potentiation % / FG 8033 is better by: 5-HT Potentiation Factor: FG 8033 compared with the listed compound, mice s.c.
From the text: I. POTENTIATION OF 5-HTP (5-HYDROXYTRYPTOPHANE) INDUCED HYPERMOTILITY IN MICE
This behavior is characterized by continuous jerky locomotion, head movements from side to side, abduction of the hind limbs, tremor, and lordosis.
Measurement of the motility after administration of test drugs to 5-HTP-pretreated mice is therefore used as a test for 5-HT-potentiation, which most probably proceeds through an inhibition of 5-HT uptake.
Female mice of the NMRI strain weighing 20-22 g are used. The controls receive 5-HTP 150 mg/kg (15 ml/kg) i.p. (i.p.=intraperitoneally) and thirty (30) minutes later physiological saline (20 ml/kg) s.c. (s.c.=subcutaneously). The motility is measured by an Animex™ motimeter 45-75 minutes after 5-HTP administration. The test animals received test substance s.c. (20 ml/kg) instead of physiological saline. Five groups of two (2) mice are used for control and per dose of each test drug. the test substance is dosed according to the dose scale 1, 1.6, 2.5, 4, 6.3, and 10 mg/kg etc.
The activity of the test animals is compared to the activity of controls. The best straight line is fitted through the points in a coordinate system (abscissa log dose, ordinate log activity). […] The activity of controls is investigated in thirty (30) groups of two (2) mice.

[2] = in vivo; settings: mouse, in vivo, sc
Experimental: (§1) (J. Buus Lassen, European Journal of Pharmacology 47, 351-358 (1978)). See also Squires in Acta Pharmacol. et Toxicol, 1972, 31 Suppl. 1,35 for a description of a further procedure for measurement of the same 5-HT uptake-inhibitory phenomenon.
(§2) II. ACUTE TOXICITY IN MICE
(§3) A variation of the procedure of J. Buus Lassen, et al. in European Journal of Pharmacology 32, 108-115 (1975) is employed. The test drug is administered s.c. in increasing doses to mice, four (4) animals at each dose level.
(§4) Results are expressed as LD50 = . . . mg/kg s.c.

[3] = test system: mice; assay: in vivo; settings: for FG 8033 is better by: T.I. % / FG 8033 is better by: T.I. Factor: FG 8033 compared with the listed compound, mice s.c.
Experimental: as §1, §2, §3, §4

[4] = versus (+) trans isomer FG 8032
[5] = versus (+), trans des-p-fluoro compound FG 4963
[6] = versus (-), trans des-p-fluoro compound FG 4962

Row | Structure (SMILES) | ED50 ([1]; mice) [mg/kg] | FG 8033 is better by: 5-HT Potentiation % [1] [%] | FG 8033 is better by: 5-HT Potentiation Factor [1] | FG 8033 is better by: T.I. % [3] [%] | FG 8033 is better by: T.I. Factor [3] | other results
1 | COc1ccc(OC[C@@H]2CN(C)CC[C@H]2c2ccc(F)cc2)cc1.Cl (single isomer, unassigned) [FG 8032, (+)-trans-4-(4-fluorophenyl)-3-[(4-methoxyphenoxy)methyl]-1-methylpiperidine hydrochloride] | 23 |  |  |  |  | 
2 | COc1ccc(OC[C@@H]2CNCC[C@H]2c2ccccc2)cc1 (single isomer, unassigned) [FG 7006, reference compound] | 20 | 4000 | 40 | 4444 | 44.44 | selectivity ratio [2]: 18; Test 001 acute toxicity LD50 ([3]; mice, s.c., lethality at 24 hours, water-soluble salt): 350 mg/kg
3 | COc1ccc(OC[C@@H]2CNCC[C@H]2c2ccc(F)cc2)cc1 (single isomer, unassigned) [FG 7080, (-)-trans-4-(4-fluorophenyl)-3-[(4-methoxyphenoxy)-methyl]-piperidine] | 1 |  |  |  |  | 
4 | COc1ccc(OC[C@@H]2CN(C)CC[C@H]2c2ccc(F)cc2)cc1 (relative stereo) [FG 98-I] | 1.3 | 260 | 2.6 | 174 | 1.74 | 
5 | CC(=O)O.COc1ccc(OC[C@@H]2CNCC[C@H]2c2ccc(F)cc2)cc1 (single isomer, unassigned) [FG 8035, (+)-trans-4-(4-fluorophenyl)-3-((4-methoxyphenoxy)methyl)-piperidine acetate] | 22 | 4400 | 44 | 3333 | 33.33 | 
6 | COc1ccc(OC[C@@H]2CN(C)CC[C@H]2c2ccccc2)cc1 (relative stereo) [FG 4932, reference compound] | 7.7 |  |  |  |  | 
7 | COc1ccc(OC[C@H]2CNCC[C@@H]2c2ccccc2)cc1 (single isomer, unassigned) [FG 4996, reference compound] | 9 | 1800 | 18 | 5714 | 57.14 | 
8 | COc1ccc(OC[C@@H]2CN(C)CC[C@H]2c2ccccc2)cc1 (single isomer, unassigned) [FG 4962, reference compound] | 3.8 |  |  |  |  | 
9 | COc1ccc(OC[C@H]2CN(C)CC[C@@H]2c2ccccc2)cc1 (single isomer, unassigned) [FG 4963, reference compound] | 2.8 |  |  |  |  | 
10 | CN1CC[C@@H](c2ccc(F)cc2)[C@H](COc2ccc3c(c2)OCO3)C1 (single isomer, unassigned) [FG 7043, reference compound] | 4 |  |  |  |  | 
11 | COc1ccc(OC[C@@H]2CN(C)CC[C@H]2c2ccc(F)cc2)cc1 (single isomer, unassigned) [FG 8033, (-)-trans-4-(4-fluorophenyl)-3-[(4-methoxyphenoxy)-methyl]-1-methyl-piperidine] | 0.5 |  |  |  |  | degree of activity in test for potentiation of 5-hydroxytryptophane-induced hypermotility (in words) ([1]; mice): remarkably and unpredictably superior in its 5-HT potentiation to the most structurally closely-related compounds evaluated; 5-HT potentiation activity relative to FG 8032 [1, 4]: 46 times; 5-HT potentiation activity relative to FG 8032, percent [1, 4]: 4600%; superiority as to 5-HT potentiation over FG 4963, factor [1, 5]: 5.6; superiority as to 5-HT potentiation over FG 4963, percent [1, 5]: 560%; 5-HT potentiation activity relative to FG 4962 [1, 6]: 7.6 times; 5-HT potentiation activity relative to FG 4962, percent [1, 6]: 760%; Therapeutic Index (in words) ([3]; calculated as LD50/ED50): even more remarkably and unpredictably superior to those most structurally closely-related compounds when considering its Therapeutic Index; Therapeutic Index relative to FG 8032 [3, 4]: more than 47 times; Therapeutic Index relative to FG 8032, percent [3, 4]: > 4700%; superiority as to Therapeutic Index over FG 4963, factor [3, 5]: greater than 5.97 times; superiority as to Therapeutic Index over FG 4963, percent [3, 5]: > 597%; Therapeutic Index relative to FG 4962 [3, 6]: more than 15 times; Therapeutic Index relative to FG 4962, percent [3, 6]: > 1500%
